From patent publication US20210062263A1, “A CLINICAL […]” (priority 2016, published 2021)

Columns and labels:
[1] = Serum testosterone levels (RIA) in wounded male mice with testosterone implants; assay type: in vivo; details: for Serum Testosterone: Castrated + T males
Description: Six to nine week-old male Balb/cJASMU mice obtained from the Monash University Animal Services, Monash University, Clayton, Victoria, Australia, were housed prior to and during experiments under the following conditions: temperature range 21° C. to 24° C.; light cycle 12 hours light: 12 hours dark. All mice had access to food and water ad libitum.
Six week-old male mice were castrated under anesthesia three weeks prior to the studies on wound healing. The testes were gently pushed through the inguinal canal into the abdominal cavity and exposed through a small (0.5 cm) ventral midline abdominal incision. Each testis was gently dissected from its epididymis and removed after ligation of the testicular vasculature. All incisions were closed using two interrupted 5/0 silk sutures (Johnson & Johnson Medical, NSW, Australia).
(§1) Implants were prepared by cutting medical grade Silastic (polydimethylsiloxane) tubing (1.5 mm inner diameter, 2.3 mm outer diameter, Aunet Pty Ltd, WA, Australia) to the desired length (1 cm long) and sealing one end with Multi-Purpose Sealant (Dow Corning RTV Sealant). After 24 hours each tube was packed with either crystalline testosterone (Sigma #T-1500) or left empty (vehicle implant). The open end was then sealed and implants were allowed to dry for at least 24 hours prior to surgical implantation. The implant size was considered to be the length of tubing containing testosterone. Prior to subcutaneous insertion, implants were sterilized in absolute ethanol for 10 minutes which also removed any androgen adhering to its external surface. Each testosterone or vehicle implant was inserted subcutaneously via a 5-mm nape incision in intact and castrated male mice three weeks before the wound healing experiments and the incision site was closed with 5/0 sutures.
(§2) Under anesthesia, the dorsal flanks of each 9 weeks old mouse (n=6/group) were carefully shaved and cleansed with 70% v/v ethanol. To create wounds, full-thickness, parasagittal linear incisions (1 cm long) were made through the skin and underlying the panniculus carnosus muscle on each flank and each wound was closed using two 5/0 silk sutures placed 3 mm from each end of the wound. Post operatively, all animals received analgesia to minimize pain, were allowed to recover on a heated pad and then housed in groups of four animals per cage. Incisions were examined and assessed on days 3, 5, 7 and post-wounding.
(§3) Blood samples were collected between 10:00 and 10:30 am by cardiac puncture at different time points (0d, 3d, 5d, 7d or 14d) according to the experimental protocol. The samples were allowed to coagulate for 30 minutes then centrifuged at 10,000 g for 10 minutes to collect serum which was stored at −20° C. until assayed.
Serum testosterone levels were measured using a direct radioimmunoassay (RIA) testosterone kit (IM1119—Immunotech, Marseilles, France) according to the manufacturer's instructions, using I^125-labeled testosterone as a radioactive tracer. The antibody used in the immunoassay is highly specific for testosterone with extremely low cross-reactivity (<0.75%) for related molecules such as 5a-dihydrotestosterone or […]. The assay sensitivity for serum testosterone was 15.63 pg/ml and the intra-assay variation was 7.9%. All samples from one experiment were measured in the same assay.

activin A [2] = test: Cutaneous activin A levels (ELISA) after wounding; assay type: in vivo, mice; details: testosterone replacement, day 3 post-wounding
Excerpt: as §2
Following exsanguination, anesthetized animals were killed by cervical dislocation. Full-thickness specimens of the skin wound, consisting of the entire wound scar surrounded by a border of about 3-mm, were excized and bisected. Half of each sample was frozen at −80° C. and the other half was fixed in 4% v/v paraformaldehyde (Sigma-Aldrich, NSW, Australia) and processed for histology. Unwounded skin was obtained from the dorsum of the trunk near the tail of each animal to determine protein levels. […]
Activin A levels were measured in serum and skin using a specific ELISA and human recombinant activin A as a standard, according to manufacturer's instructions (Oxford Bioinnovations, Cherwell, Oxfordshire, UK) [Knight et al. (1996) J Endocrinol 148(2):267-279]. […]

CD45+ cells = test: Immunohistochemical analysis of leukocyte infiltration (CD45+ cells); assay type: in vivo, mice
Excerpt: CD45, also known as leukocyte common antigen (LCA), was used to detect infiltrating leukocytes as a marker of inflammation (Hermiston et al. (2003) Annul Rev Immunol 21:107-137). Five micron thick sections were cut and placed on Menzel-Glaser Polysine (Registered Trade Mark) slides (Thermo Scientific), air-dried and stored at room temperature. Slides were stained using an automated system (DAKO Autostainer Plus), at room temperature; sections were rehydrated and antigen retrieved with the Dako buffers citrate pH6.1. Slides were peroxidase-blocked in 3% v/v hydrogen peroxide (H2O2) in methanol for 10 mins. They were then blocked with CAS-Block (Invitrogen, CA, USA) for 10 minutes, and then incubated with primary antibody (CD45 biotinylated rat anti-mouse antibody, 1:200) for 20 min. Vectastain ABC kit (Vector Labs, Burlingame, Calif.) was subsequently applied for 30 minutes and further colorimetric detection was completed with diaminobenzidine (DAB) for 5 minutes. Sections were counterstained with haematoxylin and slides coverslipped under DePeX.
Leukocyte infiltration was assessed by calculating the average number of CD45+ cells in four random high-power fields (HPF) per tissue section from each group. Data presented reflect the mean total cell count per field from the wound area at days 3 and 5 post-wounding.

activin A [3] = test: Serum activin A levels (ELISA) in wounded male mice; assay type: in vivo
Description: as §1, §2, §3
Activin A levels were measured in serum and skin using a specific ELISA and human recombinant activin A as a standard, according to manufacturer's instructions (Oxford Bioinnovations, Cherwell, Oxfordshire, UK) [Knight et al. (1996) J Endocrinol 148(2):267-279]. The assay sensitivity for serum activin A was 11 pg/ml, with an intra-assay variation of 4.6-7.5% and an inter-assay variation of 10.6%.

follistatin = test: Serum follistatin levels (RIA) in wounded male mice; assay type: in vivo
Description: as §1, §2, §3
Serum and skin follistatin levels were measured by RIA using human recombinant follistatin 288 as standard and as tracer following labeling with I^125 (O'Conner et al. (1999) Hum Reprod 14(3):827-832). The assay sensitivity for serum follistatin was 1.52 ng/ml, and the intra-assay variation was 5.4-5.7%.

C[C@]12CC[C@H]3[C@@H](CCC4=CC(=O)CC[C@@]43C)[C@@H]1CC[C@@H]2O [testosterone]
Serum Testosterone ([1]; 0 d): 5.7 ± 0.8 ng/mL
Serum Testosterone ([1]; 3 d): 5.4 ± 0.5 ng/mL
Serum Testosterone ([1]; 5 d): 5.9 ± 0.4 ng/mL
Serum Testosterone ([1]; 7 d): 5.2 ± 0.5 ng/mL
Serum Testosterone ([1]; 14 d): 4.5 ± 0.1 ng/mL
serum testosterone levels (in words) ([1]; castrated males, testosterone replacement): back to control levels
concentration at 0 d ([1]; male, Balb/cJASMU, mouse, serum, subcutaneous, 1 cm Silastic implant packed with crystalline testosterone, Intact + T males, 0 d): 5.3 ± 0.4 ng/mL
concentration at 3 d ([1]; male, Balb/cJASMU, mouse, serum, subcutaneous, 1 cm Silastic implant packed with crystalline testosterone, Intact + T males, 3 d): 5.9 ± 0.4 ng/mL
concentration at 5 d ([1]; male, Balb/cJASMU, mouse, serum, subcutaneous, 1 cm Silastic implant packed with crystalline testosterone, Intact + T males, 5 d): 7.8 ± 0.9 ng/mL
concentration at 7 d ([1]; male, Balb/cJASMU, mouse, serum, subcutaneous, 1 cm Silastic implant packed with crystalline testosterone, Intact + T males, 7 d): 6.7 ± 0.4 ng/mL
concentration at 14 d ([1]; male, Balb/cJASMU, mouse, serum, subcutaneous, 1 cm Silastic implant packed with crystalline testosterone, Intact + T males, 14 d): 6.3 ± 0.3 ng/mL
increase in cutaneous levels of activin A (activin A [2]; castrated males): 17 fold
cutaneous levels of activin A relative to castrated males (activin A [2]): twice
number of CD45+ cells (CD45+ cells; castrated group with testosterone replaced vs castrated group, days 3 and 5 post-wounding): significantly increased
leukocyte migration and infiltration to the wound site (summary) (CD45+ cells; male mice): increased migration and infiltration of leukocytes
Serum Activin A (activin A [3]; Castrated + T males, 0 d): 80.2 ± 7.8 pg/mL
Serum Activin A (activin A [3]; Castrated + T males, 3 d): 65.4 ± 5.8 pg/mL
Serum Activin A (activin A [3]; Castrated + T males, 5 d): 54.9 ± 7.7 pg/mL
Serum Activin A (activin A [3]; Castrated + T males, 7 d): 83.8 ± 7.3 pg/mL
Serum Activin A (activin A [3]; Castrated + T males, 14 d): 93 ± 7.7 pg/mL
Serum Activin A (activin A [3]; Intact + T males, 0 d): 65.4 ± 6.8 pg/mL
Serum Activin A (activin A [3]; Intact + T males, 3 d): 85.2 ± 5 pg/mL
Serum Activin A (activin A [3]; Intact + T males, 5 d): 74.9 ± 6.9 pg/mL
Serum Activin A (activin A [3]; Intact + T males, 7 d): 92.1 ± 3.8 pg/mL
Serum Activin A (activin A [3]; Intact + T males, 14 d): 74.6 ± 3.5 pg/mL
serum activin levels (in words) (activin A [3]; castrated males, testosterone replacement vs castrated+Vh, days 3 and 5 post wounding): decreased serum activin levels
Serum Follistatin (follistatin; Castrated + T males, 0 d): 4.3 ± 0.5 ng/mL
Serum Follistatin (follistatin; Castrated + T males, 3 d): 4.1 ± 0.3 ng/mL
Serum Follistatin (follistatin; Castrated + T males, 5 d): 3.9 ± 0.2 ng/mL
Serum Follistatin (follistatin; Castrated + T males, 7 d): 4.5 ± 0.3 ng/mL
Serum Follistatin (follistatin; Castrated + T males, 14 d): 4.5 ± 0.5 ng/mL
Serum Follistatin (follistatin; Intact + T males, 0 d): 3.6 ± 0.03 ng/mL
Serum Follistatin (follistatin; Intact + T males, 3 d): 3.8 ± 0.3 ng/mL
Serum Follistatin (follistatin; Intact + T males, 5 d): 3.8 ± 0.1 ng/mL
Serum Follistatin (follistatin; Intact + T males, 7 d): 3.8 ± 0.4 ng/mL
Serum Follistatin (follistatin; Intact + T males, 14 d): 3.6 ± 0.2 ng/mL
